Legend:
[1] = molecular target: T1, human recombinant serotonin (5-Hydroxytryptamine) 5-HT2A receptor (Homo sapiens, UniProt P28223); assay: Serotonin 5-HT2A radioligand binding assay ([3H]Ketanserin); conditions: compound at 1 μM; 0.5 nM [3H]Ketanserin; CHO-K1 cells; read-out: Percent Inhibition of ligand binding, Serotonin (1 μM) 5-HT2A
T1 construct: expressed in transfected cells; host or cells: Chinese hamster ovary (CHO-K1) cells
Procedure: (§1) Compounds of the invention were incubated with 0.5 nM [^3H]Ketanserin for 60 min at 25° C. Non-specific binding was estimated in the presence of 1 μM Mianserin. Receptor proteins were filtered and washed, the filters were then counted to determine [^3H]Ketanserin specifically bound. Compounds were screened at 1 μM or lower, using 1% DMSO as vehicle. Biochemical assay results are presented as the percent inhibition of specific binding in Table 4.

[2] = molecular target: T2, human recombinant serotonin (5-Hydroxytryptamine) 5-HT2C receptor (Homo sapiens, UniProt P28335); assay: Serotonin 5-HT2C radioligand binding assay ([3H]Mesulergine); conditions: compound at 1 μM; 1 nM [3H]Mesulergine; CHO-K1 cells; read-out: Percent Inhibition of ligand binding, Serotonin (1 μM) 5-HT2C
T2 construct: expressed in transfected cells; host or cells: Chinese hamster ovary (CHO-K1) cells
T2 sequence (P28335 33-458): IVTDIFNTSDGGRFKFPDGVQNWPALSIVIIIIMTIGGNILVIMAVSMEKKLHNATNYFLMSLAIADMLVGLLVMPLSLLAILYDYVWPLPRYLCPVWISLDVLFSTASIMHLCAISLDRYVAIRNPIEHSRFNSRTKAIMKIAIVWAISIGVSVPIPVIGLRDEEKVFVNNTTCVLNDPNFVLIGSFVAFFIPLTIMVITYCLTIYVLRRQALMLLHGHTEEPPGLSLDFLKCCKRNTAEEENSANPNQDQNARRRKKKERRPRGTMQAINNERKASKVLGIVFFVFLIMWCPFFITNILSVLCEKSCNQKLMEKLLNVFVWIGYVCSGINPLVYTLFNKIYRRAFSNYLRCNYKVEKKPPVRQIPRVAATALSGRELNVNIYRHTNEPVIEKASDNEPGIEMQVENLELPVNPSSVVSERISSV
Procedure: as §1, with “1” for “0.5”, “[^3H]Mesulergine” for “[^3H]Ketanserin”

[3] = molecular target: human recombinant dopamine D2L receptor (Homo sapiens, UniProt P14416); assay: Dopamine D2L radioligand binding assay ([3H]Spiperone); conditions: compound at 1 μM, 0.16 nM [3H]Spiperone, CHO cells, read-out: Percent Inhibition of ligand binding, Dopamine (1μM)
Procedure: Compounds of the invention were incubated with 0.16 nM [^3H]Spiperone for 120 min at 25° C. Non-specific binding was estimated in the presence of 10 μM Haloperidol. Receptor proteins were filtered and washed, the filters were then counted to determine [^3H]Spiperone specifically bound. Compounds were screened at 1 μM or lower, using 1% DMSO as vehicle. Biochemical assay results are presented as the percent inhibition of specific binding in Table 3.

[4] = molecular target: T3, human recombinant serotonin (5-Hydroxytryptamine) 5-HT6 receptor (Homo sapiens, UniProt P50406); assay: Serotonin 5-HT6 radioligand binding assay ([3H]LSD); conditions: compound at 1 μM, HeLa cells, read-out: Percent Inhibition of ligand binding, Serotonin (1 μM) 5-HT6
T3 construct: expressed in transfected cells; host or cells: human HeLa cells
Procedure: (§2) Compounds of the invention were incubated with 1.5 nM [3H]Lysergic acid diethylamide (LSD) for 120 min at 37° C. […] Receptor proteins were filtered and washed, the filters were then counted to determine [3H]LSD specifically bound. Compounds were screened at 1 μM or lower, using 1% DMSO as vehicle. Biochemical assay results are presented as the percent inhibition of specific binding in Table 4.

[5] = molecular target: T4, human recombinant histamine H2 receptor (Homo sapiens, UniProt P25021); assay: Histamine H2 radioligand binding assay ([125I]Aminopotentidine); conditions: compound at 1 μM; 0.1 nM [125I]Aminopotentidine; receptor expressed in CHO-K1 cells
T4 construct: expressed in transfected cells; host or cells: Chinese hamster ovary (CHO) K1 cells
Procedure: To evaluate in radioligand binding assays the activity of compounds of the invention, human recombinant histamine H2 receptor expressed in Chinese hamster ovary (CHO) K1 cells (Ruat, M., Proc. Natl. Acad. Sci. USA. 87(5):1658, 1990) in a 50 mM Phosphate buffer, pH 7.4 was used. Compounds of the invention were incubated with 0.1 nM [^125I]Aminopotentidine for 120 min at 25° C. Non-specific binding was estimated in the presence of 3 μM Tiotidine. Receptor proteins were filtered and washed, the filters were then counted to determine [^125I]Aminopotentidine specifically bound. Compounds were screened at 1 μM or lower, using 1% DMSO as vehicle. Biochemical assay results are presented as the percent inhibition of specific binding in Table 2.

[6] = molecular target: human recombinant histamine H1 receptor (Homo sapiens, UniProt P35367); assay: Histamine H1 radioligand binding assay ([3H]Pyrilamine); conditions: compound at 1 μM, receptor expressed in CHO cells
Procedure: To evaluate in radioligand binding assays the activity of compounds of the invention, human recombinant histamine H1 receptor expressed in Chinese hamster ovary (CHO) cells (De Backer, M. D. et al., Biochem. Biophys. Res. Comm. 197(3):1601, 1993) in a modified Tris-HCl buffer (50 mM Tris-HCl, pH 7.4, 2 mM MgCl2, 100 mM NaCl, 250 mM Sucrose) was used. Compounds of the invention were incubated with 1.2 nM [^3H]Pyrilamine for 180 min at 25° C. Non-specific binding was estimated in the presence of 1 μM pyrilamine Receptor proteins were filtered and washed, the filters were then counted to determine [^3H]Pyrilamine specifically bound. Compounds were screened at 1 μM or lower, using 1% DMSO as vehicle. Biochemical assay results are presented as the percent inhibition of specific binding in Table 2.

[7] = molecular target: human recombinant serotonin (5-Hydroxytryptamine) 5-HT7 receptor (Homo sapiens, UniProt P34969); assay: Serotonin 5-HT7 radioligand binding assay ([3H]LSD); conditions: compound at 1 μM; 5.5 nM [3H]LSD; CHO cells; read-out: Percent Inhibition of ligand binding, Serotonin (1 μM) 5-HT7
Procedure: as §2, with “of” for “of the”, “5.5” for “1.5”, “[^3H] Lysergic” for “[3H]Lysergic”, “2 h” for “120 min”, “25°” for “37°”, “[^3H]LSD” for “[3H]LSD”

Sequence of human recombinant serotonin (5-Hydroxytryptamine) 5-HT7 receptor (P34969 whole entry): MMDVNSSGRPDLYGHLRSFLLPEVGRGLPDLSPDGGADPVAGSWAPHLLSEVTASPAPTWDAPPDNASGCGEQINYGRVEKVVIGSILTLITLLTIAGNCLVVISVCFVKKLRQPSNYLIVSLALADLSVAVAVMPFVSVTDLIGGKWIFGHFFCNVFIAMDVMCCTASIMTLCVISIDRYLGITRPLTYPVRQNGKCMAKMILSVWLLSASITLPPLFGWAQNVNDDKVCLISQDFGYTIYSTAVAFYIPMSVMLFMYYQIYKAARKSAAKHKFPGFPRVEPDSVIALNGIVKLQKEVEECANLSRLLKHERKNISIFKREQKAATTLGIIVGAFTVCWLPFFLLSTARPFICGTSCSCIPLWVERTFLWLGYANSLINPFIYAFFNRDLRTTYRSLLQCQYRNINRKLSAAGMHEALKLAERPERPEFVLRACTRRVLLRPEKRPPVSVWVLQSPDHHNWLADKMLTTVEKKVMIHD
Sequence of human recombinant dopamine D2L receptor (P14416 whole entry): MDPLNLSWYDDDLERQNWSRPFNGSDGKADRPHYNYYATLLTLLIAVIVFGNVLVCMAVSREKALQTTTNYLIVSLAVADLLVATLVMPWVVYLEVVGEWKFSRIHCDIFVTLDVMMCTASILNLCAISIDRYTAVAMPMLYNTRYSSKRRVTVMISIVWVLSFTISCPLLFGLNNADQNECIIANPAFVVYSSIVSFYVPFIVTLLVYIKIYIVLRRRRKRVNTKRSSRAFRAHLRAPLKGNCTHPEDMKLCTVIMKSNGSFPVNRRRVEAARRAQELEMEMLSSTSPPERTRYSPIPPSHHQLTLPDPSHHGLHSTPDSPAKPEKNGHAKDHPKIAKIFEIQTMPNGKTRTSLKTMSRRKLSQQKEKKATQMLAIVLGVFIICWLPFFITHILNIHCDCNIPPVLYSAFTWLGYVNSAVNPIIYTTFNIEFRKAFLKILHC
Sequence of human recombinant histamine H1 receptor (P35367 whole entry): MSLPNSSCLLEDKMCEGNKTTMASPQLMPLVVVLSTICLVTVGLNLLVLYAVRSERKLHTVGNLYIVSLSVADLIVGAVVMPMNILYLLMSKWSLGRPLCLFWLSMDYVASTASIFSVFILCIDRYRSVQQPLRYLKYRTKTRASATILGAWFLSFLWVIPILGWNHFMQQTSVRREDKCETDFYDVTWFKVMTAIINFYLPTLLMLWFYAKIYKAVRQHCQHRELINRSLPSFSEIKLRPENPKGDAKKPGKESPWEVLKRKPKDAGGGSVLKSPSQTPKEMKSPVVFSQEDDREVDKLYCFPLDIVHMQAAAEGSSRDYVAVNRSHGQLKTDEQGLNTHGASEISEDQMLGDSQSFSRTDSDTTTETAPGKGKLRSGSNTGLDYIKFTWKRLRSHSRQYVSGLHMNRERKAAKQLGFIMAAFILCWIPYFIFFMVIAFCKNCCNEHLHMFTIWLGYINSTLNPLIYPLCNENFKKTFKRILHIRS
T3 sequence (P50406 whole entry): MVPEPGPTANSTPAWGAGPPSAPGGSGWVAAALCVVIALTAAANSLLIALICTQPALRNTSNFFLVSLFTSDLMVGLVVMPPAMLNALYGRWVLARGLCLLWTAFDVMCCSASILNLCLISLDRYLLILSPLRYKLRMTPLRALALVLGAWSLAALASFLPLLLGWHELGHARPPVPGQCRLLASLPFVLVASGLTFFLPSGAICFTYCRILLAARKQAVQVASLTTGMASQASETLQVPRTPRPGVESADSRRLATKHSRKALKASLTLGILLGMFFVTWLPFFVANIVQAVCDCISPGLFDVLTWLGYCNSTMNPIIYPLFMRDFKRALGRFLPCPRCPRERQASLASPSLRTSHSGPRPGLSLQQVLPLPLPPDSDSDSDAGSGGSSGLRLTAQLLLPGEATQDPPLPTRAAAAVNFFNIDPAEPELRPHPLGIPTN
T4 sequence (P25021 whole entry): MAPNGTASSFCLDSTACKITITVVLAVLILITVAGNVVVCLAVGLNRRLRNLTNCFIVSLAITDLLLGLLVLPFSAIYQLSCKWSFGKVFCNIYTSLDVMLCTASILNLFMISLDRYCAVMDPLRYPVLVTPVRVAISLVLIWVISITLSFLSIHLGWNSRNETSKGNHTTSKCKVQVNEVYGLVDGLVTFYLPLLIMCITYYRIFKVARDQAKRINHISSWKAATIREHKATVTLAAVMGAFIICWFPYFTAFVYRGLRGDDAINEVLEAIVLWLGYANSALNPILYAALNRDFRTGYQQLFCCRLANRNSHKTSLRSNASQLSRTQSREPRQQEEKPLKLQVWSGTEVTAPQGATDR
T1 sequence (P28223 whole entry): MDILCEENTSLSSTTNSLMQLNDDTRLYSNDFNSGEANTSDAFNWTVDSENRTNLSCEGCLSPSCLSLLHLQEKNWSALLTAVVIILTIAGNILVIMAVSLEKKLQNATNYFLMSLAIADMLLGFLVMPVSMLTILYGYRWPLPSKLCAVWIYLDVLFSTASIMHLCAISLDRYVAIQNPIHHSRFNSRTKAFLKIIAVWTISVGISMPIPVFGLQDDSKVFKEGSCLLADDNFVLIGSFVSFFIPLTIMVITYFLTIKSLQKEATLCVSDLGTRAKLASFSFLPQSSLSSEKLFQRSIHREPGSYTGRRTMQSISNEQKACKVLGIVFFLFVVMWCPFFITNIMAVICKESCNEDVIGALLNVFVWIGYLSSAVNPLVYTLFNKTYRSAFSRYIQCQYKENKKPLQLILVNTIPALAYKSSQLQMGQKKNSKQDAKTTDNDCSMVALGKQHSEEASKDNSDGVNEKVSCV

Cc1ccc2c(c1)c1c(n2CCc2ccc(C)nc2)CCN(CCCCO)C1 [Compound 1-43, 4-(8-methyl-5-(2-(6-methylpyridin-3-yl)ethyl)-3,4-dihydro-1H-pyrido[4,3-b]indol-2(5H)-yl)butan-1-ol]
inhibition at 1 µM [1]: 47%
inhibition at 1 µM [2]: 49%
inhibition at 1 µM [3]: 10%
inhibition at 1 µM [4]: 22%
inhibition at 1 µM [5]: 21%
inhibition at 1 µM [6]: 97%
inhibition at 1 µM [7]: 66%
